Drawing on patent publication US9873690B2, “3-indol substituted derivatives, pharmaceutical compositions and methods for use” (Pfizer Inc., priority 2015, dated 2018), this text covers IC50 for nine molecules.

The assay deals with T1, hTDO2 (Homo sapiens, UniProt P48775).
T1 construct: endogenous in cells; host or cells: A172 human brain glioblastoma cells (ATCC CRL-1620)
T1 sequence (P48775 whole entry): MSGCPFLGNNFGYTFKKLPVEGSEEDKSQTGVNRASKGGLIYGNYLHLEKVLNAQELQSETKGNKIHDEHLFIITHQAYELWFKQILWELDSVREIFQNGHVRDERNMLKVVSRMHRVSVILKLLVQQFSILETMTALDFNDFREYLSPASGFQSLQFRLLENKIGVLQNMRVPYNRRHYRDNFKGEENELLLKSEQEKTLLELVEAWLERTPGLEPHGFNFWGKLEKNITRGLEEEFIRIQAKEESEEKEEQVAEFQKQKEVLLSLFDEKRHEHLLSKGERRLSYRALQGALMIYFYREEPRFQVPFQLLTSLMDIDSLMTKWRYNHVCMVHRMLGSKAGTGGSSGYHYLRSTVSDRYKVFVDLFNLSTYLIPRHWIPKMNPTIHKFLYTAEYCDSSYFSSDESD
Nature of the assay: Cellular assay for TDO2 activity determination in A172 cells. The format is cell-based. The following applies: human glioblastoma A172 cells naturally expressing hTDO2; overnight incubation; kynurenine by absorbance at 480 nm. In a few lines: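 A172 glioblastoma cells endogenously expressing hTDO2, 1.25×10^4 cells/well, incubated overnight at 37 °C, 5% CO2 in IMDM with 2% FBS and ten compound concentrations. Supernatant kynurenine measured after TCA treatment and Ehrlich's reagent (4-dimethylaminobenzaldehyde) by absorbance at 480 nm against a kynurenine standard curve, then curve-fitted.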
By IC50 is commonly meant the concentration at which inhibition is half-maximal. Read a high IC50 as lower potency. The molecule `O=S1(=O)c2ccc(-c3c[nH]c4cc(F)ccc34)cc2CN1[C@@H]1CCOC1` [Example 38, (R)-5-(6-fluoro-1H-indol-3-yl)-2-(tetrahydrofuran-3-yl)-2,3-dihydrobenzo[d]isothiazole 1,1-dioxide] returned an IC50 of 380 nM.

Consider `O=S1(=O)c2ccc(-c3c[nH]c4cc(F)ccc34)cc2CN1[C@H]1CCOC1` [Example 39, (S)-5-(6-fluoro-1H-indol-3-yl)-2-(tetrahydrofuran-3-yl)-2,3-dihydrobenzo[d]isothiazole 1,1-dioxide], for which it took 342 nM to reach half-maximal inhibition (IC50).

`O=S1(=O)c2ccc(-c3c[nH]c4cc(F)ccc34)cc2CN1C1CNC1` [Example 40, 2-(azetidin-3-yl)-5-(6-fluoro-1H-indol-3-yl)-2,3-dihydrobenzo[d]isothiazole 1,1-dioxide] came in with an IC50 of 859 nM. This IC50 is about 2.5-fold higher than that of the molecule before.

For the molecule `CN1CC(N2Cc3cc(-c4c[nH]c5cc(F)ccc45)ccc3S2(=O)=O)C1` [Example 41, 5-(6-fluoro-1H-indol-3-yl)-2-(1-methylazetidin-3-yl)-2,3-dihydrobenzo[d]isothiazole 1,1-dioxide], the IC50 came to 433 nM.

On to `CNC(=O)CCN1Cc2cc(-c3c[nH]c4cc(F)ccc34)ccc2S1(=O)=O` [Example 43, 3-(5-(6-fluoro-1H-indol-3-yl)-1,1-dioxidobenzo[d]isothiazol-2(3H)-yl)-N-methylpropanamide], for which the IC50 came out at 136 nM. This IC50 is about 3.2-fold lower than that of the molecule before.

In the case of `NC(=O)CCN1Cc2cc(-c3c[nH]c4cc(F)ccc34)ccc2S1(=O)=O` [Example 44, 3-(5-(6-fluoro-1H-indol-3-yl)-1,1-dioxidobenzo[d]isothiazol-2(3H)-yl)propanamide], the IC50 amounted to 255 nM.

The molecule `CC1=NS(=O)(=O)c2ccc(-c3c[nH]c4cc(F)ccc34)cc21` [Example 135, 5-(6-fluoro-1H-indol-3-yl)-3-methylbenzo[d]isothiazole 1,1-dioxide] displayed an IC50 of 183 nM.

As to `O=S1(=O)NC2(CC2)c2cc(-c3c[nH]c4cc(F)ccc34)ccc21` [Example 136, 5-(6-fluoro-1H-indol-3-yl)-2H-spiro[benzo[d]-isothiazole-3,1′-cyclopropane] 1,1-dioxide], it took 233 nM to reach half-maximal inhibition (IC50).

`CC1c2cc(-c3c[nH]c4cc(F)ccc34)ccc2S(=O)(=O)N1Cc1ccccn1` (stereo not drawn) [Example 149, 5-(6-fluoro-1H-indol-3-yl)-3-methyl-2-(pyridin-2-ylmethyl)-2,3-dihydrobenzo[d]isothiazole 1,1-dioxide] came in with an IC50 of 397 nM.
